Twelve compounds from patent publication US11919900B1 (priority 2023, dated 2024) can be followed below.

Experiment [1] concerns multidrug-resistant (MDR) strains of Mycobacterium tuberculosis. The experiment can be described thus: microbe, parasite or virus in culture. It is filed as cell-based. The note with it: for MIC: Mycobacterium tuberculosis, 192 h, read-out: Antitubercular activity against Mycobacterium tuberculosis MDR (MIC).
For experiment [2], the system named is extensively drug resistant (XDR) strains of Mycobacterium tuberculosis. The experiment is described as follows: microbe, parasite or virus in culture. The note with it: 192 h, read-out: Antitubercular activity against Mycobacterium tuberculosis XDR (MIC). It is filed as cell-based.

In brackets after ≈: the same amount, converted by molar mass.

For `COC(=O)c1c(C(=O)OC)c2c(Br)cc3ccccc3n2c1C(=O)c1ccc(OC)cc1` [QUIN-KNV1, Dimethyl 4-bromo-1-(4-methoxybenzoyl)pyrrolo[1,2-a]quinoline-2,3-dicarboxylate], the MIC in experiment [1] and in experiment [2] was 2 µg/mL (≈ 4.03 µM) each time.
On to `CCOC(=O)c1cc(C(=O)c2ccc(OC)cc2)n2c1c(Br)cc1ccccc12` [QUIN-KNV2, Ethyl 4-bromo-1-(4-methoxybenzoyl)pyrrolo[1,2-a]quinoline-3-carboxylate], for which the MIC in experiment [1] and in experiment [2] was 4 µg/mL (≈ 8.84 µM) throughout.
With `COC(=O)c1c(C(=O)OC)c2c(Br)cc3ccccc3n2c1C(=O)c1ccc(Cl)cc1` [QUIN-KNV3, Dimethyl 4-bromo-1-(4-chlorobenzoyl)pyrrolo[1,2-a]quinoline-2,3-dicarboxylate], the MIC in experiment [1] and in experiment [2] was 4 µg/mL (≈ 7.99 µM) each time.
On to `CCOC(=O)c1cc(C(=O)c2ccc(Cl)cc2)n2c1c(Br)cc1ccccc12` [QUIN-KNV4, Ethyl 4-bromo-1-(4-chlorobenzoyl)pyrrolo[1,2-a]quinoline-3-carboxylate], for which the MIC in experiment [1] is 8 µg/mL (≈ 17.5 µM).
In the case of `COC(=O)c1c(C(=O)OC)c2c(Br)cc3ccccc3n2c1C(=O)c1ccc(Br)cc1` [QUIN-KNV5, Dimethyl 4-bromo-1-(4-bromobenzoyl)pyrrolo[1,2-a]quinoline-2,3-dicarboxylate], the MIC in experiment [1] amounted to 1 µg/mL (≈ 1.83 µM); in experiment [2], 2 µg/mL (≈ 3.67 µM).
The like results for `CCOC(=O)c1cc(C(=O)c2ccc(Br)cc2)n2c1c(Br)cc1ccccc12` [QUIN-KNV6, Ethyl 4-bromo-1-(4-bromobenzoyl)pyrrolo[1,2-a]quinoline-3-carboxylate] were, in that order, 4 µg/mL (≈ 7.98 µM) and 4 µg/mL (≈ 7.98 µM).
Take `COC(=O)c1c(C(=O)OC)c2c(Br)cc3ccccc3n2c1C(=O)c1ccc(F)cc1` [QUIN-KNV7, Dimethyl 4-bromo-1-(4-fluorobenzoyl)pyrrolo[1,2-a]quinoline-2,3-dicarboxylate]: the MIC in experiment [1] came to 16 µg/mL (≈ 33 µM).
Regarding `CCOC(=O)c1cc(C(=O)c2ccc(F)cc2)n2c1c(Br)cc1ccccc12` [QUIN-KNV8, Ethyl 4-bromo-1-(4-fluorobenzoyl)pyrrolo[1,2-a]quinoline-3-carboxylate], the MIC in experiment [1] and in experiment [2] was 4 µg/mL (≈ 9.09 µM) each time.
`COC(=O)c1c(C(=O)OC)c2c(Br)cc3ccccc3n2c1C(=O)c1ccc(C#N)cc1` [QUIN-KNV9, Dimethyl 4-bromo-1-(4-cyanobenzoyl)pyrrolo[1,2-a]quinoline-2,3-dicarboxylate]: the MIC came to 8 µg/mL (≈ 16.3 µM) in experiment [1] and 16 µg/mL (≈ 32.6 µM) in experiment [2].
Take `CCOC(=O)c1cc(C(=O)c2ccc(C#N)cc2)n2c1c(Br)cc1ccccc12` [QUIN-KNV10, Ethyl 4-bromo-1-(4-cyanobenzoyl)pyrrolo[1,2-a]quinoline-3-carboxylate]: the MIC in experiment [1] came to 16 µg/mL (≈ 35.8 µM).
Still for that read-out and setting: next, `COC(=O)c1c(C(=O)OC)c2c(Br)cc3ccccc3n2c1C(=O)c1ccccc1` [QUIN-KNV11, Dimethyl 1-benzoyl-4-bromopyrrolo[1,2-a]quinoline-2,3-dicarboxylate]: 16 µg/mL (≈ 34.3 µM).
As for “Ethyl 4-bromo-1-(2-nitrobenzoyl)pyrrolo[1,2-a]quinoline-3-carboxylate [QUIN-KNV12]”, the “Antitubercular activity against Mycobacterium tuberculosis MDR (MIC)” value in experiment [1] (MDR-TB, drug resistance at least to isoniazid and rifampicin, REMA, 8 days at 37° C. then resazurin overnight) is 8 µg/mL.
